From patent US12077503B2, “Substituted cyclic amides and their use as herbicides” (FMC CORPORATION, priority 2015, dated 2024)

Experiments:
Assay type in all cases: in vivo
[1] = tested on: corn (Zea mays); assay: Test G Pre-Emergence Protocol; details: Zea mays, pre-emergence, 312 h, evaluated after 13 days; for plant injury at 15.625 g/ha: 15.625 g ai/ha; for plant injury at 15.625 g/ha / plant injury at 250 g/ha: read-out: Corn damage rating (100=total damage to plant; 0=no damage to plant); for plant injury at 62.5 g/ha: 62.5 g ai/ha, 100=total damage to plant, 0=no damage to plant, read-out: plant damage rating, Corn; for plant injury at 250 g/ha: 250 g ai/ha
Procedure, shortened: (§1)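 Glasshouse pre-emergence test: soil-sown seeds, sprayed after 1 d at 15.625, 62.5 or 250 g/ha. Conditions 24/16° C day/night, 14 h light, 65% humidity, watering twice daily. Rating 13 d post-spray (100 = total damage).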

[2] = tested on: ivy-leaved morning glory (Ipomoea hederacea); assay: Test G Pre-Emergence Protocol; details: Ipomoea, pre-emergence, 312 h, evaluated after 13 days; for pest or weed control at 15.625 g/ha: 15.625 g ai/ha, read-out: Morning-glory, Ivy-leaved damage rating (100=total damage to plant; 0=no damage to plant); for pest or weed control at 62.5 g/ha: 62.5 g ai/ha, 100=total damage to plant, 0=no damage to plant, read-out: plant damage rating, Morningglory, Ivy-leaved; for pest or weed control at 250 g/ha: 250 g ai/ha, read-out: Morningglory, Ivy-leaved damage rating (100=total damage to plant; 0=no damage to plant)
Procedure, shortened: as §1

[3] = tested on: redroot pigweed (Amaranthus retroflexus); assay: Test G Pre-Emergence Protocol; details: Amaranthus retroflexus, pre-emergence, 312 h, evaluated after 13 days; for pest or weed control at 15.625 g/ha: 15.625 g ai/ha; for pest or weed control at 15.625 g/ha / pest or weed control at 250 g/ha: read-out: Pigweed, Redroot damage rating (100=total damage to plant; 0=no damage to plant); for pest or weed control at 62.5 g/ha: 62.5 g ai/ha, 100=total damage to plant, 0=no damage to plant, read-out: plant damage rating, Pigweed, Redroot; for pest or weed control at 250 g/ha: 250 g ai/ha
Procedure, shortened: as §1

[4] = tested on: barnyardgrass (Echinochloa crus-galli); assay: Test G Pre-Emergence Protocol; details: Echinochloa crus-galli, pre-emergence, 312 h, evaluated after 13 days; for pest or weed control at 15.625 g/ha: 15.625 g ai/ha, read-out: Barnyard grass damage rating (100=total damage to plant; 0=no damage to plant); for pest or weed control at 62.5 g/ha: 62.5 g ai/ha, 100=total damage to plant, 0=no damage to plant, read-out: plant damage rating, Barnyardgrass; for pest or weed control at 250 g/ha: 250 g ai/ha, read-out: Barnyardgrass damage rating (100=total damage to plant; 0=no damage to plant)
Procedure, shortened: as §1

[5] = tested on: velvetleaf (Abutilon theophrasti); assay: Test G Pre-Emergence Protocol; details: Abutilon theophrasti, pre-emergence, 312 h, evaluated after 13 days; for pest or weed control at 15.625 g/ha: 15.625 g ai/ha; for pest or weed control at 15.625 g/ha / pest or weed control at 250 g/ha: read-out: Velvetleaf damage rating (100=total damage to plant; 0=no damage to plant); for pest or weed control at 62.5 g/ha: 62.5 g ai/ha, 100=total damage to plant, 0=no damage to plant, read-out: plant damage rating, Velvetleaf; for pest or weed control at 250 g/ha: 250 g ai/ha
Procedure, shortened: as §1

[6] = tested on: giant foxtail (Setaria faberi); assay: Test G Pre-Emergence Protocol; details: Setaria faberi, pre-emergence, 312 h, evaluated after 13 days; for pest or weed control at 15.625 g/ha: 15.625 g ai/ha; for pest or weed control at 15.625 g/ha / pest or weed control at 250 g/ha: read-out: Foxtail, Giant damage rating (100=total damage to plant; 0=no damage to plant); for pest or weed control at 62.5 g/ha: 62.5 g ai/ha, 100=total damage to plant, 0=no damage to plant, read-out: plant damage rating, Foxtail, Giant; for pest or weed control at 250 g/ha: 250 g ai/ha
Procedure, shortened: as §1

[7] = tested on: corn (Zea mays); assay: Test G Post-Emergence Protocol; details: Zea mays, post-emergence, 312 h; for plant injury at 15.625 g/ha: 15.625 g ai/ha, evaluated after 13 days (100=total damage to plant; 0=no damage to plant), read-out: Corn damage rating; for plant injury at 62.5 g/ha: 62.5 g ai/ha, read-out: Corn damage rating (100=total damage to plant; 0=no damage to plant); for plant injury at 62.5 g/ha / plant injury at 250 g/ha: evaluated after 13 days; for plant injury at 250 g/ha: 250 g ai/ha, read-out: damage to plant, Corn (100=total damage to plant; 0=no damage to plant)
Procedure, shortened: (§2)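 Eight days post-sowing, plants received a spray of test compound (acetone/water 50:50, 0.5% Tween 20) at 15.625, 62.5 or 250 g/ha. Glasshouse regime thereafter: 24/16 °C, 14 h light, 65% humidity. Assessment after 13 days on a 0–100 damage scale.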

[8] = tested on: ivy-leaved morning glory (Ipomoea hederacea); assay: Test G Post-Emergence Protocol; details: Ipomoea, post-emergence, 312 h; for pest or weed control at 15.625 g/ha: 15.625 g ai/ha, evaluated after 13 days (100=total damage to plant; 0=no damage to plant), read-out: Morningglory, Ivy-leaved damage rating; for pest or weed control at 62.5 g/ha: 62.5 g ai/ha, read-out: Morningglory, Ivy-leaved damage rating (100=total damage to plant; 0=no damage to plant); for pest or weed control at 62.5 g/ha / pest or weed control at 250 g/ha: evaluated after 13 days; for pest or weed control at 250 g/ha: 250 g ai/ha, read-out: damage to plant, Morningglory, Ivy-leaved (100=total damage to plant; 0=no damage to plant)
Procedure, shortened: as §2

[9] = tested on: redroot pigweed (Amaranthus retroflexus); assay: Test G Post-Emergence Protocol; details: Amaranthus retroflexus, post-emergence, 312 h; for pest or weed control at 15.625 g/ha: 15.625 g ai/ha, evaluated after 13 days (100=total damage to plant; 0=no damage to plant), read-out: Pigweed, Redroot damage rating; for pest or weed control at 62.5 g/ha: 62.5 g ai/ha, read-out: Pigweed, Redroot damage rating (100=total damage to plant; 0=no damage to plant); for pest or weed control at 62.5 g/ha / pest or weed control at 250 g/ha: evaluated after 13 days; for pest or weed control at 250 g/ha: 250 g ai/ha, read-out: damage to plant, Pigweed, Redroot (100=total damage to plant; 0=no damage to plant)
Procedure, shortened: as §2

[10] = tested on: barnyardgrass (Echinochloa crus-galli); assay: Test G Post-Emergence Protocol; details: Echinochloa crus-galli, post-emergence, 312 h; for pest or weed control at 15.625 g/ha: 15.625 g ai/ha, evaluated after 13 days (100=total damage to plant; 0=no damage to plant), read-out: Barnyardgrass damage rating; for pest or weed control at 62.5 g/ha: 62.5 g ai/ha, read-out: Barnyardgrass damage rating (100=total damage to plant; 0=no damage to plant); for pest or weed control at 62.5 g/ha / pest or weed control at 250 g/ha: evaluated after 13 days; for pest or weed control at 250 g/ha: 250 g ai/ha, read-out: damage to plant, Barnyardgrass (100=total damage to plant; 0=no damage to plant)
Procedure, shortened: as §2

[11] = tested on: velvetleaf (Abutilon theophrasti); assay: Test G Post-Emergence Protocol; details: Abutilon theophrasti, post-emergence, 312 h; for pest or weed control at 15.625 g/ha: 15.625 g ai/ha, evaluated after 13 days (100=total damage to plant; 0=no damage to plant), read-out: Velvetleaf damage rating; for pest or weed control at 62.5 g/ha: 62.5 g ai/ha, read-out: Velvetleaf damage rating (100=total damage to plant; 0=no damage to plant); for pest or weed control at 62.5 g/ha / pest or weed control at 250 g/ha: evaluated after 13 days; for pest or weed control at 250 g/ha: 250 g ai/ha, read-out: damage to plant, Velvetleaf (100=total damage to plant; 0=no damage to plant)
Procedure, shortened: as §2

[12] = tested on: giant foxtail (Setaria faberi); assay: Test G Post-Emergence Protocol; details: Setaria faberi, post-emergence, 312 h; for pest or weed control at 15.625 g/ha: 15.625 g ai/ha, evaluated after 13 days (100=total damage to plant; 0=no damage to plant), read-out: Foxtail, Giant damage rating; for pest or weed control at 62.5 g/ha: 62.5 g ai/ha, read-out: Foxtail, Giant damage rating (100=total damage to plant; 0=no damage to plant); for pest or weed control at 62.5 g/ha / pest or weed control at 250 g/ha: evaluated after 13 days; for pest or weed control at 250 g/ha: 250 g ai/ha, read-out: damage to plant, Foxtail, Giant (100=total damage to plant; 0=no damage to plant)
Procedure, shortened: as §2

SMILES | plant injury at 15.625 g/ha [1] | plant injury at 62.5 g/ha [1] | plant injury at 250 g/ha [1] | pest or weed control at 15.625 g/ha [2] | pest or weed control at 62.5 g/ha [2] | pest or weed control at 250 g/ha [2] | pest or weed control at 15.625 g/ha [3] | pest or weed control at 62.5 g/ha [3] | pest or weed control at 250 g/ha [3] | pest or weed control at 15.625 g/ha [4] | pest or weed control at 62.5 g/ha [4] | pest or weed control at 250 g/ha [4] | pest or weed control at 15.625 g/ha [5] | pest or weed control at 62.5 g/ha [5] | pest or weed control at 250 g/ha [5] | pest or weed control at 15.625 g/ha [6] | pest or weed control at 62.5 g/ha [6] | pest or weed control at 250 g/ha [6] | plant injury at 15.625 g/ha [7] | plant injury at 62.5 g/ha [7] | other results
COc1ccc(CNC(=O)[C@H]2C(=O)N(C)C[C@@H]2c2ccc(C(F)(F)F)cc2)c(OC)c1 (racemic) [Compound 1479] | 0% | 0% | 0% | 0% | 0% | 0% | 0% | 0% | 0% | 0% | 0% | 10% | 0% | 0% | 10% | 0% | 20% | 20% | 10% | 10% | plant injury at 250 g/ha [7]: 10%; pest or weed control at 15.625 g/ha [8]: 0%; pest or weed control at 62.5 g/ha [8]: 0%; pest or weed control at 250 g/ha [8]: 0%; pest or weed control at 15.625 g/ha [9]: 0%; pest or weed control at 62.5 g/ha [9]: 0%; pest or weed control at 250 g/ha [9]: 20%; pest or weed control at 15.625 g/ha [10]: 0%; pest or weed control at 62.5 g/ha [10]: 20%; pest or weed control at 250 g/ha [10]: 20%; pest or weed control at 15.625 g/ha [11]: 0%; pest or weed control at 62.5 g/ha [11]: 0%; pest or weed control at 250 g/ha [11]: 0%; pest or weed control at 15.625 g/ha [12]: 0%; pest or weed control at 62.5 g/ha [12]: 20%; pest or weed control at 250 g/ha [12]: 0%
COc1cc([C@@H]2CN(C)C(=O)[C@H]2C(=O)Nc2cccc(F)c2F)ccn1 (racemic) [Compound 1480] | 20% | 30% | 80% | 0% | 0% | 70% | 0% | 0% | 40% | 30% | 80% | 90% | 0% | 0% | 10% | 40% | 90% | 90% | 20% | 20% | plant injury at 250 g/ha [7]: 60%; pest or weed control at 15.625 g/ha [8]: 0%; pest or weed control at 62.5 g/ha [8]: 0%; pest or weed control at 250 g/ha [8]: 20%; pest or weed control at 15.625 g/ha [9]: 0%; pest or weed control at 62.5 g/ha [9]: 0%; pest or weed control at 250 g/ha [9]: 10%; pest or weed control at 15.625 g/ha [10]: 50%; pest or weed control at 62.5 g/ha [10]: 70%; pest or weed control at 250 g/ha [10]: 80%; pest or weed control at 15.625 g/ha [11]: 0%; pest or weed control at 62.5 g/ha [11]: 0%; pest or weed control at 250 g/ha [11]: 20%; pest or weed control at 15.625 g/ha [12]: 60%; pest or weed control at 62.5 g/ha [12]: 70%; pest or weed control at 250 g/ha [12]: 70%
Cc1cc([C@@H]2CN(C)C(=O)[C@H]2C(=O)Nc2cccc(F)c2F)cc(Cl)n1 (racemic) [Compound 1481] | 30% | 30% | 60% | 0% | 0% | 10% | 0% | 0% | 20% | 20% | 40% | 80% | 0% | 0% | 10% | 40% | 60% | 90% | 20% | 20% | plant injury at 250 g/ha [7]: 60%; pest or weed control at 15.625 g/ha [8]: 0%; pest or weed control at 62.5 g/ha [8]: 10%; pest or weed control at 250 g/ha [8]: 80%; pest or weed control at 15.625 g/ha [9]: 0%; pest or weed control at 62.5 g/ha [9]: 0%; pest or weed control at 250 g/ha [9]: 20%; pest or weed control at 15.625 g/ha [10]: 30%; pest or weed control at 62.5 g/ha [10]: 60%; pest or weed control at 250 g/ha [10]: 70%; pest or weed control at 15.625 g/ha [11]: 0%; pest or weed control at 62.5 g/ha [11]: 0%; pest or weed control at 250 g/ha [11]: 10%; pest or weed control at 15.625 g/ha [12]: 40%; pest or weed control at 62.5 g/ha [12]: 60%; pest or weed control at 250 g/ha [12]: 70%
